This is an account of results in patent US20250082630A1, “METHODS OF TREATING BRAIN TUMOURS AND NEUROBLASTOMAS” (AstraZeneca AB, priority 2021, published 2025).

Molecules are shown by their SMILES. Bounds are passed on as bounds.

Data set [1] in a line: Determination of Kpuu in rat. As to conditions: Han Wistar, rat, brain and plasma (unbound brain-to-plasma ratio), 2 µmols/kg/h, intravenous infusion. It is filed as in vivo, Han Wistar rats. The method, then: The fraction unbound was determined using the RED Device.
Compounds were prepared as 10 mM solutions in DMSO. […] If less than 9 test compounds were included then the addition volume of blank DMSO was added to make up volume to 40 uL.
Frozen plasma was thawed in a water bath at 37° C. Plasma was then centrifuged for 2 minutes at 4,000 rpm to remove clots and collect supernatant into a fresh tube. The pH of the plasma was checked and only used if within the range of pH 7 to pH 8. 3 μL of the working solution of each cassette was added to 597 μL of blank plasma and vortexed for 5 minutes at 1000 rpm. The final percent volume of organic solvent is 0.5% and the final concentration for test compound was 5 μM. Immediately transfer 50 μL of the spiked plasma suspension to a 96-well plate to act as T=0 control sample. The samples are treated the same as the samples after incubation. The remaining plasma is kept at 37° C. prior to starting the dialysis.
Place inserts open end up into the wells of the base plate. Add 300 μL of spiked plasma sample into the sample chamber, indicated by the red ring. Add 500 μL of phosphate buffer (pH 7.4) to the buffer chamber. Cover the unit with gas permeable lid and incubate for 18 hours at 37° C. at 300 rpm with 5% CO2 on an orbital shaker in the CO2 incubator. At the end of incubation, remove lid and pipette 50 μL of post-dialysis samples from both buffer and plasma chambers into separated 96-well plate for analysis, respectively.
Samples were matrix matched by adding 50 μL of blank rat plasma to the buffer samples and an equal volume of PBS to the collected plasma samples and vortexed to mix. 400 μL of acetonitrile containing an appropriate internal standard (IS) was added to precipitate protein and release compound and mixed by vortexing the plate for 10 minutes followed by centrifugation for 30 minutes at 4,000 rpm. 250 μL of the supernatant was transferred to new 96-well plates and centrifuged again (4,000 rpm, 30 minutes). 100 μL of the supernatant was then transferred to new 96-well plates and mixed with 100 μL of distilled water to each sample by vortex for 5 minutes at 1,000 rpm. Samples were analysed by LC-MS/MS and drug concentrations were determined vs a calibration curve produced from spiked blank plasma with a typical range of 1-7500 nM.
The % unbound was determined as % Unbound=(Conc. buffer chamber/Conc. plasma chamber)×100%. Fraction unbound=% unbound/100.
The principle for the method for the determination of volume unbound in brain slices has previously been published (Development of a High-Throughput Brain Slice Method for Studying Drug Distribution in the Central Nervous System; Fridén et al; Drug Metabolism and Disposition, 2009, 37 (6) 1226-1233). In brief:
Compound stock solutions were prepared in DMSO at the concentration of 10 mM. […] If less than 9 test compounds were included, then blank DMSO was added to make up volume to 40 uL. On the day of the experiment 4 ul was diluted in 40 mL ECF buffer to give a 100 nM solution of each test compounds which was then pre-warmed to 37° C. before the start of the incubation.
To prepare brain slices, rats weighing approximately 300 g were terminally anesthetised with isoflurane by inhalation, the brain carefully removed and immersed in ice-cold oxygenated ECF buffer. The rat brain was transferred to a dish containing ice-cold, 02 supplied ECF buffer and trimmed with razor before gluing to the tray of a microslicer with the brain placed with the back section surface down centrally on the tray. Ice cold ECF buffer was added to harden the glue and wet the brain. The tray was placed in the microslicer and using a suitable cutting speed, 100-400 μm were cut slices until the striatum area appeared. Four to six for each brain, 300 μm thick, coronal slices of striatum areas were cut and placed in ice cold 02 supplied buffer until incubation. Six slices were transferred to the incubation tray containing 40 mL pre warmed (37° C.) cassette mixture. […]

The next data set relates to U87 IDH1wt ATRXwt. Briefly: Monotherapy treatment, U87 IDH1wt ATRXwt. It is filed as cell-based. As to conditions: read-out: Compound 20 IC50. The method, then: (§1) To evaluate the activity and potency of the PARP inhibitors described herein in combination with the standard of care chemotherapy Temozolamide (TMZ), ionizing radiation (IR) and the emerging chemotherapy VAL-083, U87, SJG2 and BT245 glioblastoma cells were assayed. Parental U87 cell lines were obtained from the AstraZeneca Global Cell Bank in Alderley Park, UK and the isocistrate dehydrogenase 1 mutant cell line (IDH1 mt R1 32H) was licensed in from ATCC. The SJ-G2 (ATRX mutant) and BT245 (H3K27M mutant) cell lines were obtained from The Research Institute of the McGill University Health Centre, Montreal, QC H4A 3J1, Canada. IDH1R132 mutation was induced in SJG2 cell line to generated isogenic pair (SJG2 IDH1mt and SJG2 IDH1 wt). […]
(§2) For the nuclear count end point assay, cells were fixed for ˜15 minutes (min) by the addition of 50 μl per well of Formaldehyde (Sigma-Aldrich F8775). […] The images were acquired using CellInsight CX5 (Thermo Fisher) and analysed by measuring the total number of hoechst stained nuclei. The number of nuclei (% confluence) of the drug treated wells were normalised to the DMSO control and the growth inhibition was calculated using the combenefit software (Di Veroli et al., 2016).

The test system of the next data set is SJ-G2 IDH1wt ATRXmt. Briefly: Monotherapy treatment, SJ-G2 IDH1wt ATRXmt. Format: cell-based. Here is the method: DMSO served as a vehicle control.
The plates were washed again and PBS was added.

Data set [2] has as its system PARylation in U87 isogenic pair. Briefly: PARylation inhibition in U87 isogenic pair. Format: cell-based. To be noted: data not shown.
A further data set addresses PARP1 (Homo sapiens (Human), UniProt P09874). Briefly: PARP1 trapping. It is filed as cell-based. As to conditions: data not shown.
The test system of the next data set is U87 IDH1 mt R132H. As to the kind of experiment: Combination assay PARP inhibitor with TMZ, U87 IDH1mt. It is filed as cell-based. Here is the method:
as §1, §2

Chain of PARP1 (P09874 whole entry): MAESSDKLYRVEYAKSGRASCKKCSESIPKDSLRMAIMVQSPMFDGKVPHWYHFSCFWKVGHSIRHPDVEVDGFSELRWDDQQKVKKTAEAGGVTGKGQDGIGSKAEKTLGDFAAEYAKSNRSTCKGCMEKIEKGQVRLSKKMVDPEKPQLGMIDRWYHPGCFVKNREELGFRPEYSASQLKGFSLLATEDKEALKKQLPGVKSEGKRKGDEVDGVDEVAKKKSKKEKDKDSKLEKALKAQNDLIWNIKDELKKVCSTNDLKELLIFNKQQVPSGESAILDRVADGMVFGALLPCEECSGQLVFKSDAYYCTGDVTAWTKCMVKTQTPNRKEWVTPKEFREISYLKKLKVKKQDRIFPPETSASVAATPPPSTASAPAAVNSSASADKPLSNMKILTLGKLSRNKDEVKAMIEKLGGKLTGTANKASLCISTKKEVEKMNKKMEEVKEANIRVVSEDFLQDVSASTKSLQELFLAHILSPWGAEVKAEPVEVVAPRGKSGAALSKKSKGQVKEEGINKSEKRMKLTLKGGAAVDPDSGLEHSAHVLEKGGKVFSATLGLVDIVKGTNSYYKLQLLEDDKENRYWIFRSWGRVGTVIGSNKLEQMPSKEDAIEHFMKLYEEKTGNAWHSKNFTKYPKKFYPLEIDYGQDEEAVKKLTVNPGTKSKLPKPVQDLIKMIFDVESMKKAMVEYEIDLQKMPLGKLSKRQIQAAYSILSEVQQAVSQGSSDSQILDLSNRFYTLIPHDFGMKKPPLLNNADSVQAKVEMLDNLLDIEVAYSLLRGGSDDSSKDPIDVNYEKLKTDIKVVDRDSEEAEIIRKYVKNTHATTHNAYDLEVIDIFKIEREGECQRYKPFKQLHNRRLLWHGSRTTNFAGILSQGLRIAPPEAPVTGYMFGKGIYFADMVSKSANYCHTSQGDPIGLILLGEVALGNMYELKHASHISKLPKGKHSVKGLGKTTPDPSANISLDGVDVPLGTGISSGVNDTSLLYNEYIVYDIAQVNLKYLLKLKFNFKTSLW

As to `CNC(=O)c1ccc(N2CCN(Cc3ccc4nc(C)c(=O)[nH]c4c3F)CC2)c(F)n1` [Example 20, 6-fluoro-5-[4-[(5-fluoro-2-methyl-3-oxo-4H-quinoxalin-6-yl)methyl]piperazin-1-yl]-N-methyl-pyridine-2-carboxamide], in data set [1], the Kp uu at 4 h stood at 0.27. Moreover, the IC50 was greater than 100 µM in the data set on U87 IDH1wt ATRXwt and 2.34 µM in the data set with SJ-G2 IDH1wt ATRXmt (SJ-G2, read-out: Compound 20 IC50). The “higher sensitivity compared to the ATRXwt U87 model” value with SJ-G2 IDH1wt ATRXmt (SJ-G2 ATRXmt model, monotherapy) was “about 40 fold”. Moreover, in data set [2], the “IC95 for PARylation inhibition” value came to 0.008 µM. The “lowest concentration with potent trapping of PARP1” value on PARP1 is 10 nM. Besides, the “concentration at which Compound 20 synergises with TMZ” value in the data set on U87 IDH1 mt R132H (U87 IDH1mt) is 1 µM. Further, the “lower concentration for synergy with TMZ in IDH1mt compared to wild type” value in the data set with U87 IDH1 mt R132H (U87 IDH1mt vs IDH1 wt) was 10 fold.

The term IC50 denotes the concentration at which inhibition is half-maximal.
